# In ChEMBL document CHEMBL5154936, “Scaffold Hopping Strategy to Identify Prostanoid EP4 Receptor Antagonists for Cancer Immunotherapy” (J Med Chem, 2022):
# Key:
# [1] = Metabolic stability in human liver microsomes assessed as half life; assay type: ADME, Microsome
# [2] = Clearance in BALB/c mouse at 1 mg/kg, iv measured upto 24 hrs by LC-MS/MS analysis; assay type: ADME, organism-based; settings: in vivo
# [3] = AUC (0 to infinity) in BALB/c mouse at 1 mg/kg, iv measured upto 24 hrs by LC-MS/MS analysis; assay type: ADME, organism-based; parameters: time < 24 hrs, dose 1 mg/kg, route iv; settings: in vivo
# CYP2B6 = target: T1, CYP2B6 (Homo sapiens, UniProt P20813); assay: Inhibition of CYP2B6 (unknown origin) at 20 uM; assay type: ADME
# T1 sequence (P20813 whole entry): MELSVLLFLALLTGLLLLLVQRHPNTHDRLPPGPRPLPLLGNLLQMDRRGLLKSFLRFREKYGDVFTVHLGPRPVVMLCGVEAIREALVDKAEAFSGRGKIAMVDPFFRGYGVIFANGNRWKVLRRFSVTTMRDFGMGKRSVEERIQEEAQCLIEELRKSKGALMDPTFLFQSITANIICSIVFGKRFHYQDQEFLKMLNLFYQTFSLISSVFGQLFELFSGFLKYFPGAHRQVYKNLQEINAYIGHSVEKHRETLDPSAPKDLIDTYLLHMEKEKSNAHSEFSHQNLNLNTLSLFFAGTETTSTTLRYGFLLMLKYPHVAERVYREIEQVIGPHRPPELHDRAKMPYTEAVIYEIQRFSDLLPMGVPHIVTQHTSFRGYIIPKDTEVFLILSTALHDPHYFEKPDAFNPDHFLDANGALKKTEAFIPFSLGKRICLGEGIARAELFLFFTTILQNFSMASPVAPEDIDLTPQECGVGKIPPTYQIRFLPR
# [4] = Half life in BALB/c mouse at 1 mg/kg, iv measured upto 24 hrs by LC-MS/MS analysis; assay type: ADME, organism-based; settings: in vivo
# [5] = Metabolic stability in human liver microsomes assessed as parent compound remaining at 10 uM measured after 60 mins; assay type: ADME, Microsome; settings: read-out: Stability
# [6] = Plasma protien binding of the compound incubated for 24 hrs by equilibrium dialysis method; assay type: ADME, cell-free; settings: read-out: PPB (converted)
# CYP2D6 = CYP2D6 (Homo sapiens, UniProt P10635); assay: Inhibition of CYP2D6 (unknown origin) at 20 uM; assay type: ADME
# CYP2D6, sequence (P10635 whole entry): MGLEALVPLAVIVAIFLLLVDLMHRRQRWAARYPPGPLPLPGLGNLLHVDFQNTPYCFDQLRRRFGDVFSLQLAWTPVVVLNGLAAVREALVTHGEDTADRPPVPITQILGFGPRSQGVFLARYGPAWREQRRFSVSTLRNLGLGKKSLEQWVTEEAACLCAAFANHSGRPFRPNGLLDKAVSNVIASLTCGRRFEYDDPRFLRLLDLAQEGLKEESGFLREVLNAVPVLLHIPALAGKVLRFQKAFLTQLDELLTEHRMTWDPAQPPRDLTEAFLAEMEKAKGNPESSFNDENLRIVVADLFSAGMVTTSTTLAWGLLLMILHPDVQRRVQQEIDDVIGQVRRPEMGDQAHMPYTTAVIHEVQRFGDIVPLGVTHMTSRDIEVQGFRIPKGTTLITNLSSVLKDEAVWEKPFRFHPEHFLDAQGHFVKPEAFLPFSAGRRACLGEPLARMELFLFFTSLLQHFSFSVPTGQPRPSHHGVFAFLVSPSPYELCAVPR
# CYP2E1 = CYP2E1 (Homo sapiens, UniProt P05181); assay: Inhibition of CYP2E1 (unknown origin) at 20 uM; assay type: ADME
# CYP2E1, sequence (P05181 whole entry): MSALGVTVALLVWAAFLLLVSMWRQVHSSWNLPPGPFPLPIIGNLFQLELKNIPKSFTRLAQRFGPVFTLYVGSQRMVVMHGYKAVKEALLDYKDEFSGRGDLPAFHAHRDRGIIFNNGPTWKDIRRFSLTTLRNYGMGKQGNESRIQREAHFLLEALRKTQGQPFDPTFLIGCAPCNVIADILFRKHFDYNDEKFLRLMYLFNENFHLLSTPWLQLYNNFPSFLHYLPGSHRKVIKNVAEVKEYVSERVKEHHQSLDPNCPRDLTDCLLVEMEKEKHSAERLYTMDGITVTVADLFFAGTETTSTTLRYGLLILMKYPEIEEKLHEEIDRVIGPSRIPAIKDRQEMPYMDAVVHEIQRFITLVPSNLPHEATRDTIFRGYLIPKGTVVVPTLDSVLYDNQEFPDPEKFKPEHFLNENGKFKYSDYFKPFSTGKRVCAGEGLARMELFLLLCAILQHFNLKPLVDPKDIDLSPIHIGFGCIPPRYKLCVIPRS
# [7] = Cmax in BALB/c mouse at 1 mg/kg, iv measured upto 24 hrs by LC-MS/MS analysis; assay type: ADME, organism-based; parameters: time < 24 hrs, dose 1 mg/kg, route iv; settings: in vivo
# [8] = Metabolic stability in mouse liver microsomes assessed as parent compound remaining at 10 uM measured after 60 mins; assay type: ADME, Microsome; settings: read-out: Stability
# CYP1A2 = target: T2, CYP1A2 (Homo sapiens, UniProt P05177); assay: Inhibition of CYP1A2 (unknown origin) at 20 uM; assay type: ADME
# T2 sequence (P05177 whole entry): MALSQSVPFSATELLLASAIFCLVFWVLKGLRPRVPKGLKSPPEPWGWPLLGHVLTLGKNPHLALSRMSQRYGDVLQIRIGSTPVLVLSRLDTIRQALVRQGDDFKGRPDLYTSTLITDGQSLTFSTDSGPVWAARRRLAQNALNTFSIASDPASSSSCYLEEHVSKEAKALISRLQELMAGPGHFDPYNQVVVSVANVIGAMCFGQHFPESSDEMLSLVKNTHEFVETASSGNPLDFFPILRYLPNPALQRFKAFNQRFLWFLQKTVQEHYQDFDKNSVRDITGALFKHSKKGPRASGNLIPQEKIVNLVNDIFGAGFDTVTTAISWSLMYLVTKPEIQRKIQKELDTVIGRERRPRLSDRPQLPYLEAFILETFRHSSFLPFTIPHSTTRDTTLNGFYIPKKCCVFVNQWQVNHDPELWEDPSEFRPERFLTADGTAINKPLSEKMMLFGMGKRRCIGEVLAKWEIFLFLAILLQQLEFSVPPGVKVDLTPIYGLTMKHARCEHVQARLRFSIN
# [9] = Metabolic stability in mouse liver microsomes assessed as half life; assay type: ADME, Microsome
# [10] = Kinetic solubility of compound in simulated gastric fluid at pH 1.2 measured after 24 hrs by HPLC analysis; assay type: physicochemical; settings: read-out: Kinetic_solubility
# [11] = Volume of distribution at steady state in BALB/c mouse at 5 mg/kg, po measured upto 24 hrs by LC-MS/MS analysis; assay type: ADME, organism-based; settings: in vivo
# [12] = target: Prostaglandin E2 receptor EP2 subtype (Homo sapiens, UniProt P43116); assay: Antagonist activity at human EP2 receptor transfected in CHO/Galpha16 cells preincubated for 15 mins followed by PGE2 addition by calcium flux assay; assay type: functional, cell-based
# Prostaglandin E2 receptor EP2 subtype, sequence (P43116 whole entry): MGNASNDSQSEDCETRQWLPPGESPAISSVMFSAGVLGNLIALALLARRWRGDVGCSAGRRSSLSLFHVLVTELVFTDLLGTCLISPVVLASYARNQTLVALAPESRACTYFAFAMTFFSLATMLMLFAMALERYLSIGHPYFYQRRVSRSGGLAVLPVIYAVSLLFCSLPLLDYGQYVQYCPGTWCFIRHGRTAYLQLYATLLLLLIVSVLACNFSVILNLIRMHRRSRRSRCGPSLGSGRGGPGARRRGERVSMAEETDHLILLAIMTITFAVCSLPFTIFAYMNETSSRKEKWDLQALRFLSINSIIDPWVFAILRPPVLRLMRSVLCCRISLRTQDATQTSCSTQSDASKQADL
# [13] = target: Voltage-gated inwardly rectifying potassium channel KCNH2 (Homo sapiens, UniProt Q12809); assay: Inhibition of human ERG potassium channel transfected in HEK293 cells by whole-cell patch clamp assay; assay type: toxicity, cell-based
# Voltage-gated inwardly rectifying potassium channel KCNH2, sequence (Q12809 whole entry): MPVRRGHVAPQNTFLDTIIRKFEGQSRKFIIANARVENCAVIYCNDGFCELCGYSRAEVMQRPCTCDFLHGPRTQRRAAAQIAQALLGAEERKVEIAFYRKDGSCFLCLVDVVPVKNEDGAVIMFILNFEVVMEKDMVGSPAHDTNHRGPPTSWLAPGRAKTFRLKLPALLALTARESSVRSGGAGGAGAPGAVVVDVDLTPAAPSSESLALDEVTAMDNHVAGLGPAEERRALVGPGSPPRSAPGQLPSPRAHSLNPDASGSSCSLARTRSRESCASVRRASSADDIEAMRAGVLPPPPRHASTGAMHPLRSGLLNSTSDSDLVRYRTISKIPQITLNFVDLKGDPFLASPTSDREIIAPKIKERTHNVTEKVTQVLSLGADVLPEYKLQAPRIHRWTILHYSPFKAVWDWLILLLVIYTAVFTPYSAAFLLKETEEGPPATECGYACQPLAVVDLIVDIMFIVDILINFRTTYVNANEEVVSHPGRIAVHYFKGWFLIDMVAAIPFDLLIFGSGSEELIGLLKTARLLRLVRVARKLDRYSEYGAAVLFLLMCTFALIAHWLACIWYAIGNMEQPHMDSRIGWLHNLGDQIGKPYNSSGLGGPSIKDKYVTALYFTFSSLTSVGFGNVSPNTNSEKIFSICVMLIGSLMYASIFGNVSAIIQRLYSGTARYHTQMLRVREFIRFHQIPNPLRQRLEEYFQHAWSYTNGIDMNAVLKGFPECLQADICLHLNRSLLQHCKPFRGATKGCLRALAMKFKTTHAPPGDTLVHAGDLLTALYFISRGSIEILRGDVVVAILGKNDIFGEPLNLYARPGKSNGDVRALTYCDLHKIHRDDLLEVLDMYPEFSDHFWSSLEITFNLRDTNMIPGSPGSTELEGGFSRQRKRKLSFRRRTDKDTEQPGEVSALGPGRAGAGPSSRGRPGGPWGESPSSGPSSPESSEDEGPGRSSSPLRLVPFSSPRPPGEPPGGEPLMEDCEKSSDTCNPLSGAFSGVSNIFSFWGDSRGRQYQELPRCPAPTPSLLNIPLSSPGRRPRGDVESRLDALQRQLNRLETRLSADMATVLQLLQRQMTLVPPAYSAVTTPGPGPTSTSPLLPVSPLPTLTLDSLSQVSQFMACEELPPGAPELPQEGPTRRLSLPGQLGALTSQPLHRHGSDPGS
# [14] = Oral bioavailability in BALB/c mouse at 5 mg/kg measured upto 24 hrs by LC-MS/MS analysis; assay type: ADME, organism-based; settings: in vivo
# [15] = Volume of distribution at steady state in BALB/c mouse at 1 mg/kg, iv measured upto 24 hrs by LC-MS/MS analysis; assay type: ADME, organism-based; settings: in vivo, read-out: Vdss
# [16] = target: Prostaglandin E2 receptor EP4 subtype (Mus musculus, UniProt P32240); assay: Antagonist activity at mouse EP4 receptor transfected in CHO/Galpha16 cells preincubated for 15 mins followed by PGE2 addition by calcium flux assay; assay type: functional, cell-based
# Prostaglandin E2 receptor EP4 subtype, sequence (P32240 whole entry): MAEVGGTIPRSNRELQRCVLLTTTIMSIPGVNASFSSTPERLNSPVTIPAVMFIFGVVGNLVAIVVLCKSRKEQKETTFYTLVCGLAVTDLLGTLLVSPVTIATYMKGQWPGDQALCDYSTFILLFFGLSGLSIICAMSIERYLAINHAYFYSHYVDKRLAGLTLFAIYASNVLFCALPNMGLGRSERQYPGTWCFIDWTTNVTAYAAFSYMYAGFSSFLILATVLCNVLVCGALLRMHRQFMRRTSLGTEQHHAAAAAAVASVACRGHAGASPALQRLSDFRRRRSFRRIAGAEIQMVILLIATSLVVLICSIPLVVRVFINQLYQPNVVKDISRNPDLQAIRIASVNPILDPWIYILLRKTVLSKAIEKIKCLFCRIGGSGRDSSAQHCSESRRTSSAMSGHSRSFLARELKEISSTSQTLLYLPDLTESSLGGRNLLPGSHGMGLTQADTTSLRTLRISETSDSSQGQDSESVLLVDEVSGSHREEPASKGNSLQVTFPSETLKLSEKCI
# [17] = AUC (0 to 24 hrs) in BALB/c mouse at 1 mg/kg, iv measured upto 24 hrs by LC-MS/MS analysis; assay type: ADME, organism-based; parameters: dose 1 mg/kg, time < 24 hrs, route iv; settings: in vivo
# [18] = AUC (0 to infinity) in BALB/c mouse at 5 mg/kg, po measured upto 24 hrs by LC-MS/MS analysis; assay type: ADME, organism-based; parameters: dose 5 mg/kg, time < 24 hrs, route po; settings: in vivo
# CYP2C9 = CYP2C9 (Homo sapiens, UniProt P11712); assay: Inhibition of CYP2C9 (unknown origin) at 20 uM; assay type: ADME
# CYP2C9, sequence (P11712 whole entry): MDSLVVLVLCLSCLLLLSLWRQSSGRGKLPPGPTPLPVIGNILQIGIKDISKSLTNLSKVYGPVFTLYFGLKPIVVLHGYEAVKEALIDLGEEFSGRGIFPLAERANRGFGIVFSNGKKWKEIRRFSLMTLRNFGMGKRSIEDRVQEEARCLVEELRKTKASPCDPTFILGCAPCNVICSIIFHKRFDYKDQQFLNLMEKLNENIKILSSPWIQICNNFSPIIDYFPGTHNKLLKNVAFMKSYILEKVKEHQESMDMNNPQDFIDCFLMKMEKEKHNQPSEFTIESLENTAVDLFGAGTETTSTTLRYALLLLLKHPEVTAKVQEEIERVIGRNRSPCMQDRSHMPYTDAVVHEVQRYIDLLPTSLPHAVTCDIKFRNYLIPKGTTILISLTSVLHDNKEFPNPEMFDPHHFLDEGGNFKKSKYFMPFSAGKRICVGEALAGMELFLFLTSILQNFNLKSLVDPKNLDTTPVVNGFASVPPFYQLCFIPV
# [19] = Metabolic stability in human liver microsomes assessed as intrinsic clearance; assay type: ADME, Microsome; settings: read-out: CLH
# [20] = AUC (0 to 24 hrs) in BALB/c mouse at 5 mg/kg, po measured upto 24 hrs by LC-MS/MS analysis; assay type: ADME, organism-based; parameters: dose 5 mg/kg, time < 24 hrs, route po; settings: in vivo
# [21] = target: T3, Prostaglandin E2 receptor EP1 subtype (Homo sapiens, UniProt P34995); assay: Antagonist activity at human EP1 receptor transfected in CHO/Galpha16 cells preincubated for 15 mins followed by PGE2 addition by calcium flux assay; assay type: functional, cell-based
# T3 sequence (P34995 whole entry): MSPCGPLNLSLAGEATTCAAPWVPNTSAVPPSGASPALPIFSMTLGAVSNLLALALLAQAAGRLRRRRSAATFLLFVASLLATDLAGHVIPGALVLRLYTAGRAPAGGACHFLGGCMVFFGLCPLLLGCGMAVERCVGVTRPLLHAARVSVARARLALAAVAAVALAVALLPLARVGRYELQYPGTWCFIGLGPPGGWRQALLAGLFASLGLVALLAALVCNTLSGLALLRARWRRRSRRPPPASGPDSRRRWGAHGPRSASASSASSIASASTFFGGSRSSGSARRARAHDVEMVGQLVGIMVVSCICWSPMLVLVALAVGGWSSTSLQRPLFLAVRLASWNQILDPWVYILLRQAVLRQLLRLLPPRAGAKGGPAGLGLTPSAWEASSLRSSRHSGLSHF
Structure (SMILES),half-life [1] [h],clearance [2] [mL/min/kg],AUC(0-inf) [3] [ng·h/mL],inhibition at 20 µM (CYP2B6) [%],half-life [4] [h],"remaining at 1 h, 10 µM [5] [%]",fraction unbound at 24 h [6],inhibition at 20 µM (CYP2D6) [%],inhibition at 20 µM (CYP2E1) [%],Cmax [7] [ng/mL],"remaining at 1 h, 10 µM [8] [%]",inhibition at 20 µM (CYP1A2) [%],half-life [9] [h],solubility kinetic at 24 h [10] [µM],Vdss [11] [L/kg],IC50 [12] [µM],IC50 [13] [µM],bioavailability [14] [%],Vd [15] [L/kg],IC50 [16] [µM],also measured
C[C@H](NC(=O)c1c(Cc2cccc(C(F)(F)F)c2)sc2c1CCOC2)c1ccc(C(=O)O)cc1,> 2.42,24.6,683,75,3.4,84.6,0.034,72,23,2800,90.2,60,> 2.42,< 1,14.5274,> 10,> 30,52.3,7.39,0.0028,AUC(0-t) at 24 h [17]: 642 ng·h/mL; AUC(0-inf) [18]: 1690 ng·h/mL; inhibition at 20 µM (CYP2C9): 27%; microsomal CLint [19]: < 9.6 µL/min/mg; AUC(0-t) at 24 h [20]: 1680 ng·h/mL; IC50 [21]: > 10 µM
O=C(O)c1ccc(CNC(=O)c2c(Cc3ccc(F)cc3)sc3c2CCOC3)cc1,> 2.42,22.7,735,78,3.2,89.8,0.062,65,31,2840,92.1,46,> 2.42,2.97,21.0327,> 10,> 30,61.4,6.14,0.0243,AUC(0-t) at 24 h [17]: 684 ng·h/mL; AUC(0-inf) [18]: 2220 ng·h/mL; inhibition at 20 µM (CYP2C9): 44%; microsomal CLint [19]: < 9.6 µL/min/mg; AUC(0-t) at 24 h [20]: 2100 ng·h/mL; IC50 [21]: > 10 µM
